Measurements taken from paper PMC12670313 (ACS Central Science, 2025).

What was measured:
MBNL1 protein = target: T1, MBNL1 protein (Homo sapiens, UniProt Q9NR56); assay: Differential scanning fluorimetry with MBNL1 protein (SYPRO Orange); type: binding; conditions: MBNL1 10 μM
T1 sequence (Q9NR56 1-388): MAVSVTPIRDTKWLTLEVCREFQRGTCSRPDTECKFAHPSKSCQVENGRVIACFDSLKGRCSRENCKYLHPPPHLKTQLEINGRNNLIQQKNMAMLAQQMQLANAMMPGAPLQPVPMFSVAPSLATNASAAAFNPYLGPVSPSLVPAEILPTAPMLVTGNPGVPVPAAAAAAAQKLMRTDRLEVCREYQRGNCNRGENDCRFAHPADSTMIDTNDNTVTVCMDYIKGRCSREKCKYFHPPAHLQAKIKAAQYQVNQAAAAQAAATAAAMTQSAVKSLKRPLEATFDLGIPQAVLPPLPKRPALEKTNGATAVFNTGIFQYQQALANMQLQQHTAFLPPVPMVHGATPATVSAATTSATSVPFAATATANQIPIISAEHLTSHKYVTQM
Method: All experiments were performed using a QuantStudio 5, 384-well Block Real-Time PCR System (Applied Biosystems). Melting curve analyses were conducted using a temperature range from 20 to 95 °C, a ramp rate of 0.01 °C/s, and 75 acquisitions per °C. Melting temperatures (T m) were determined as the peak of the negative first derivative of the fluorescence curve. Each condition was measured in triplicate, and ΔT m values were calculated relative to vehicle control. The FAM-r(CUG)10-BHQ (FAM-CCGC-UGCU-GCUG-CUGC-UGCU-GCUG-CUGC-UGCU-GCGG-BHQ) oligonucleotide was purchased from Dharmacon (HPLC purified). Briefly, 500 nM FAM-r(CUG)10-BHQ was folded by heating at 95 °C for 2 min in 20 mM NaH2PO4/Na2HPO4 buffer, pH 7.4 and then snap cooling on ice for at least 10 min. The folded RNA was incubated with test compounds at the indicated concentrations for 30 min at room temperature. In the melting curve method, fluorescence intensity was monitored using the FAM filter channel.
DSF experiments to assess compound–MBNL1 interactions were performed using SYPRO Orange Dye (Invitrogen, catalog #S6651). […] Samples (10 μL) were transferred to a 384-well PCR plate, and fluorescence intensity as a function of temperature was monitored using the TAMRA filter channel.

WT myotubes = assay: Viability of WT myotubes; type: cell-based, human; conditions: 50 µM
[1] = test system: base pair RNA (UU internal loops replaced with AU base pairs); assay: 1D imino proton NMR with base pair control RNA; type: binding; conditions: 50 µM RNA, 100 µM compound
Method: NMR spectra were recorded on a 700 MHz Bruker Avance III spectrometer equipped with a cryogenic probe. RNAs (r(GACC-UGCU-GGU-GAAA-ACC-UGC-UGG-UC) where the underlined Us indicate the internal loop nucleotides and bold indicate a GNRA hairpin) and (r(GACC-AGCU-GGU-GAAA-ACCA-GCU-GGUC) where UU internal loops were replaced with AU base pairs) were purchased from Dharmacon, HPLC purified, deprotected and desalted. The RNA (50 μM) was dissolved in NMR Buffer (5 mM KH2PO4/K2HPO4, 0.25 mM EDTA, pH 6.0) or NMR Buffer supplemented with 50 mM NaCl and reannealed by heating to 95 °C for 3 min, and then slowly cooling the sample to room temperature before adding to Shigemi NMR tubes (Shigemi, Inc.).
1D ^1H NMR spectra of exchangeable (imino) protons were acquired in 5% D2O and 95% H2O at 9 °C using 50 μM of RNA in the absence of compound. Compounds were then dissolved in D6-DMSO and added to the RNA sample to achieve a final concentration of 100 μM (1:2 RNA:compound). The chemical shifts were referenced to the residual solvent peaks of D6-DMSO, which served as the internal calibration standard. NMR spectra were processed in Topspin 4.0.6.

## Cc1ccc(CNC(=O)c2cc3c(N4CCCC4)nc(C)cn3n2)cc1 [A1]
MBNL1 protein
  ΔTm at 100 µM: 1 °C

## Cc1cn2nc(C(=O)NCCc3ccccc3)cc2c(N2CCCC2)n1 [A5]
WT myotubes
  toxicity in wild-type cells: caused toxicity

## COc1ccc(CCNC(=O)c2cc3c(N4CCCC4)nc(C)cn3n2)cc1OC [A6]
[1]
  binding to base pair RNA (1D imino proton spectra): does not bind
